Results taken from PMC12669672, “Structural insights into selective and dual antagonism of EP2 and EP4 prostaglandin receptors” (The EMBO Journal, 2025).
Several values for one entry are separate records, joined by “and”; a condition that tells them apart may be missing. Equal values may be shown once.

How the values were obtained:
Format in all cases: cell-based
[1] = target: T1, EP2-M116L (Homo sapiens, UniProt P43116, M116L); experiment: GloSensor cAMP assay, antagonism of PGE2-induced cAMP, chimeric studies; details: single experiments 1st-3rd
T1 construct: The full-length EP2 or EP4 was cloned into the pcDNA3.1 vector; FLAG (N); expressed in transfected cells; host or cells: AD293 cells
T1 sequence (P43116 whole entry M116L): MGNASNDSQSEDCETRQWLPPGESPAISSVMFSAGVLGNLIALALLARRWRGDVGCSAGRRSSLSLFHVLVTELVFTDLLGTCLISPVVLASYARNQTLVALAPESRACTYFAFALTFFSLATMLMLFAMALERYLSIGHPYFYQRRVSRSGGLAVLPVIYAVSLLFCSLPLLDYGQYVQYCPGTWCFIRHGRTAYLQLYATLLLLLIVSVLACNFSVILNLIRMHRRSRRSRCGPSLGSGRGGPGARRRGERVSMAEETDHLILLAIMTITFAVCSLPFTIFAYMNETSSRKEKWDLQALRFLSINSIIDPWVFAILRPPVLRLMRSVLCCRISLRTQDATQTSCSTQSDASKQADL
Protocol: (§1) The full-length EP2 or EP4 was cloned into the pcDNA3.1 vector (Invitrogen), incorporating an N-terminal FLAG tag. AD293 cells were seeded in six-well plates containing DMEM supplemented with 10% dialyzed FBS 1 day prior to transfection. Following overnight growth, cells were transfected with a 1:1 ratio of receptor construct and GloSensor22F cAMP biosensor (Promega) plasmids.
(§2) Twenty-four hours post-transfection, the cells were transferred to CO2-independent media containing 2% GloSensor cAMP Reagent (Promega) and distributed into 384-well assay plates at a density of 4000 cells per well in 10 μL. […] The plates were then incubated at 37 °C for an additional hour before luminescence measurements were taken using an EnVision plate reader.
(§3) Data analysis was performed using GraphPad Prism software v8.0.1. A nonlinear regression analysis, employing a sigmoidal dose–response model, was conducted to determine the Emax values and half-maximum inhibitory concentrations (IC50) for each compound tested.

[2] = target: T2, EP2-I85V (Homo sapiens, UniProt P43116, I85V); experiment: as above; details: single experiments 1st-3rd
T2 construct: The full-length EP2 or EP4 was cloned into the pcDNA3.1 vector; FLAG (N); expressed in transfected cells; host or cells: AD293 cells
T2 sequence (P43116 whole entry I85V): as the sequence (P43116 whole entry M116L) above, with I85V, L116M counted along it
Protocol: as §1, §2, §3

[3] = target: T3, EP2-L301I (Homo sapiens, UniProt P43116, L301I); experiment: as above; details: single experiments 1st-3rd
T3 construct: The full-length EP2 or EP4 was cloned into the pcDNA3.1 vector; FLAG (N); expressed in transfected cells; host or cells: AD293 cells
T3 sequence (P43116 whole entry L301I): as the sequence (P43116 whole entry M116L) above, with L116M, L301I counted along it
Protocol: as §1, §2, §3

[4] = target: T4, constitutively active EP2 S86A (Homo sapiens, UniProt P43116, S86A); experiment: GloSensor cAMP assay, inhibition of constitutive activity; details: for cAMP activity (∆pIC50 from EP2 WT): PF-04418948, S86A
T4 construct: The full-length EP2 or EP4 was cloned into the pcDNA3.1 vector; FLAG (N); expressed in transfected cells; host or cells: AD293 cells
T4 sequence (P43116 whole entry S86A): as the sequence (P43116 whole entry M116L) above, with S86A, L116M counted along it
Protocol: as §1, §2, §3

[5] = target: T5, constitutively active EP2 W186A (Homo sapiens, UniProt P43116, W186A); experiment: as above
T5 construct: The full-length EP2 or EP4 was cloned into the pcDNA3.1 vector; FLAG (N); expressed in transfected cells; host or cells: AD293 cells
T5 sequence (P43116 whole entry W186A): as the sequence (P43116 whole entry M116L) above, with L116M, W186A counted along it
Protocol: as §1, §2, §3

[6] = target: T6, constitutively active EP2 S308A (Homo sapiens, UniProt P43116, S308A); experiment: as above
T6 construct: The full-length EP2 or EP4 was cloned into the pcDNA3.1 vector; FLAG (N); expressed in transfected cells; host or cells: AD293 cells
T6 sequence (P43116 whole entry S308A): as the sequence (P43116 whole entry M116L) above, with L116M, S308A counted along it
Protocol: as §1, §2, §3

[7] = target: T7, constitutively active EP2 S305A (Homo sapiens, UniProt P43116, S305A); experiment: as above; details: for cAMP activity (∆pIC50 from EP2 WT): PF-04418948, S305A
T7 construct: The full-length EP2 or EP4 was cloned into the pcDNA3.1 vector; FLAG (N); expressed in transfected cells; host or cells: AD293 cells
T7 sequence (P43116 whole entry S305A): as the sequence (P43116 whole entry M116L) above, with L116M, S305A counted along it
Protocol: as §1, §2, §3

[8] = target: T8, constitutively active EP2 WT (Homo sapiens, UniProt P43116); experiment: as above
T8 construct: The full-length EP2 or EP4 was cloned into the pcDNA3.1 vector; FLAG (N); expressed in transfected cells; host or cells: AD293 cells
T8 sequence (P43116 whole entry): as the sequence (P43116 whole entry M116L) above, with L116M counted along it
Protocol: as §1, §2, §3

[9] = target: T9, constitutively active EP2 M116A (Homo sapiens, UniProt P43116, M116A); experiment: as above
T9 construct: The full-length EP2 or EP4 was cloned into the pcDNA3.1 vector; FLAG (N); expressed in transfected cells; host or cells: AD293 cells
T9 sequence (P43116 whole entry M116A): as the sequence (P43116 whole entry M116L) above, with L116A counted along it
Protocol: as §1, §2, §3

[10] = 1 h, ligand log([M]) -5, Fig. S7B, read-out: % cAMP activity (normalized to WT)
[11] = 1 h, ligand log([M]) -6, Fig. S7B, read-out: % cAMP activity (normalized to WT)
[12] = 1 h, ligand log([M]) -7, Fig. S7B, read-out: % cAMP activity (normalized to WT)
[13] = 1 h, ligand log([M]) -8, Fig. S7B, read-out: % cAMP activity (normalized to WT)
[14] = 1 h, ligand log([M]) -9, Fig. S7B, read-out: % cAMP activity (normalized to WT)
[15] = 1 h, ligand log([M]) -10, Fig. S7B, read-out: % cAMP activity (normalized to WT)
[16] = 1 h, ligand log([M]) -12, Fig. S7B, read-out: % cAMP activity (normalized to WT)
[17] = 1 h, PF-04418948 log([M]) -5.00, read-out: % cAMP activity (normalized to WT)
[18] = 1 h, PF-04418948 log([M]) -6.00, read-out: % cAMP activity (normalized to WT)
[19] = 1 h, PF-04418948 log([M]) -8.00, read-out: % cAMP activity (normalized to WT)
[20] = 1 h, PF-04418948 log([M]) -9.00, read-out: % cAMP activity (normalized to WT)
[21] = 1 h, PF-04418948 log([M]) -10.00, read-out: % cAMP activity (normalized to WT)
[22] = 1 h, PF-04418948 log([M]) -11.00, read-out: % cAMP activity (normalized to WT)
[23] = 1 h, PF-04418948 log([M]) -12.00, read-out: % cAMP activity (normalized to WT)
[24] = no PGE2, pIC50 mutant - pIC50 WT, mean

Q: Which results are given for `COc1ccc2cc(OCC3(C(=O)O)CN(C(=O)c4ccc(F)cc4)C3)ccc2c1` [PF-04418948]?
A: remaining activity at 10 µM [1, 10]: 11.8%; remaining activity at 1 µM [1, 11]: 12%; remaining activity at 0.1 µM [1, 12]: 36.7%; remaining activity at 0.01 µM [1, 13]: 98.5%; remaining activity at 0.001 µM [1, 14]: 132%; remaining activity at 0.0001 µM [1, 15]: 123%; remaining activity at 1 pM [1, 16]: 116%; cAMP activity (∆pIC50 from EP2 WT) ([1]; Appendix Fig. S7A): -0.408 and -0.463 and -0.307; remaining activity at 10 µM [2, 10]: 4.76%; remaining activity at 1 µM [2, 11]: 5.53%; remaining activity at 0.1 µM [2, 12]: 21.6%; remaining activity at 0.01 µM [2, 13]: 78.7%; remaining activity at 0.001 µM [2, 14]: 105%; remaining activity at 0.0001 µM [2, 15]: 94.6%; remaining activity at 10 pM ([2]; 1 h, ligand log([M]) -11, Fig. S7B, read-out: % cAMP activity (normalized to WT)): 103%; remaining activity at 1 pM [2, 16]: 91.7%; cAMP activity (∆pIC50 from EP2 WT) ([2]; Appendix Fig. S7A): -0.301 and -0.398 and -0.280; remaining activity at 10 µM [3, 10]: 20%; remaining activity at 1 µM [3, 11]: 51.7%; remaining activity at 0.1 µM [3, 12]: 121%; remaining activity at 0.01 µM [3, 13]: 112%; remaining activity at 0.001 µM [3, 14]: 117%; remaining activity at 0.0001 µM [3, 15]: 113%; remaining activity at 1 pM [3, 16]: 108%; cAMP activity (∆pIC50 from EP2 WT) ([3]; Appendix Fig. S7A): -1.743 and -1.549 and -1.608; remaining activity at 10 µM [4, 17]: 14.6%; remaining activity at 1 µM [4, 18]: 35.7%; cAMP activity (∆pIC50 from EP2 WT) ([4]; Mean): -0.316; cAMP activity (∆pIC50 from EP2 WT) ([4]; single experiments 1st-3rd): -0.355 and -0.329 and -0.263; remaining activity at 1 µM [5, 18]: 49.1%; remaining activity at 0.01 µM [5, 19]: 95.7%; remaining activity at 0.001 µM [5, 20]: 94.5%; remaining activity at 0.0001 µM [5, 21]: 103%; remaining activity at 10 pM [5, 22]: 108%; remaining activity at 1 pM [5, 23]: 90.9%; cAMP activity (∆pIC50 from EP2 WT) ([5]; PF-04418948, W186A, Mean): -2.049; ΔpIC50 [5, 24]: -2.05 ± 0.09; remaining activity at 0.01 µM [6, 19]: 45.3%; remaining activity at 0.001 µM [6, 20]: 80.9%; remaining activity at 0.0001 µM [6, 21]: 93%; remaining activity at 10 pM [6, 22]: 84.1%; remaining activity at 1 pM [6, 23]: 68.1%; cAMP activity (∆pIC50 from EP2 WT) ([6]; PF-04418948, S308A, Mean): -0.283; ΔpIC50 [6, 24]: -0.28 ± 0.10; cAMP activity (∆pIC50 from EP2 WT) ([7]; Mean): -1.012; cAMP activity (∆pIC50 from EP2 WT) ([7]; single experiments 1st-3rd): -1.044 and -1.010 and -0.982; ΔpIC50 [7, 24]: -1.01 ± 0.02; remaining activity at 0.1 µM ([8]; 1 h, PF-04418948 log([M]) -7.00, read-out: % cAMP activity (normalized to WT)): 10.6%; remaining activity at 0.01 µM [8, 19]: 44.6%; remaining activity at 0.001 µM [8, 20]: 89.9%; remaining activity at 0.0001 µM [8, 21]: 92.4%; remaining activity at 10 pM [8, 22]: 102%; remaining activity at 1 pM [8, 23]: 104%; cAMP activity (∆pIC50 from EP2 WT) ([8]; PF-04418948, WT, single experiments 1st-3rd): -0.051 and 0.118 and -0.068; remaining activity at 10 µM [9, 17]: 5.6%; remaining activity at 1 µM [9, 18]: 38.1%; remaining activity at 0.0001 µM [9, 21]: 245%; remaining activity at 10 pM [9, 22]: 252%; cAMP activity (∆pIC50 from EP2 WT) ([9]; PF-04418948, M116A, Mean): -1.518; ΔpIC50 [9, 24]: -1.52 ± 0.12
